Data reported in article PMC11129181, “Histidine-Covalent Stapled Alpha-Helical Peptides Targeting hMcl-1” (Journal of Medicinal Chemistry, 2024).
Like-named read-outs stand apart in the source and are kept apart here. Marks after values point to notes of the source that are not given here. Positions of bridges follow the written chain, without caps; N, C: chain ends. Non-standard residues stand in square brackets, D forms with d. Residues, ends and D or L forms follow the SMILES beside them. *: point of attachment. Benzoyl(2-OMe,5-SO2F) = COc1ccc(S(=O)(=O)F)cc1C(=O)*; Ala(1H-tetrazol-5-yl) = N[C@@H](Cc1nnn[nH]1)C(=O)O; S5 = C=CCCC[C@](C)(N)C(=O)O; Dap = NC[C@H](N)C(=O)O

Legend:
A549 NucLight Red cells = assay: Lytic effect on A549 NucLight Red cells (IncuCyte S3); type: cell-based, human; conditions: for lytic effect on A549 NucLight Red cells: 100 μM, images 20 min after exposure; for lytic effect on A549 cells: high concentrations, nearly immediate cell bursting after exposure, fluorescence microscopy
Excerpt: Amphipathic alpha-helical peptides have been reported to cause nonspecific membrane disruption events due to their constrained helical structure and amino acid composition.[2],[5],[37],[38] Lytic peptides in fact are highly efficient at binding and disrupting the negatively charged membrane of cells, as they are usually amphipathic and positively charged.[2],[5],[37],[38] Key determinants for cell permeability and the lytic effect are the combination of relatively high hydrophobic content and the number of positively charged residues in addition to the position of the staple within the alpha-helical peptide. Therefore, our design strategy included peptides with varying net charges and explored different positions of the staple within the peptide (Tables 1 and 2; Figure 2). To assess cellular permeability and to detect eventual nonspecific cell lytic effects, we tested selected stapled covalent peptides against the human nonsmall cell lung cancer (NSCLC) cell line A549 (Figure 7). To enhance live cell analysis, we used a cell line that was fluorescently labeled (A549 NucLight Red cells, Essen Bioscience), and cells were monitored for cell lysis via fluorescence microscopy using the IncuCyte S3 live-cell analysis system (Figure 7). […] Considering those data, together with the affinity for hMcl-1(172–323), alpha-helical content (Table 2), and covalent complex formation as detected by SDS gel electrophoresis, mass spectrometry, NMR, and X-ray crystallography, we selected agent 155H1, which was further tested in preliminary cell permeability and cellular efficacy studies.
Figure 7 Lytic effect of stapled peptides on the NSCLC A549 NucLight Red cells detected via the IncuCyte S3 live-cell analysis system. The schematic illustrations depict the lytic (panel A) and nonlytic (panel B) effects of stapled agents on the cells. Representative images of cells collected 20 min after exposure to 100 μM lytic stapled compound 1 (panel A) or nonlytic stapled peptide 155H1 (panel B), along with untreated (DMSO only) cells as a control. Note: Images were taken 20 min after plates were placed inside the IncuCyte S3 to minimize condensation that can affect image quality. The scale bar denotes 100 μm.
Nonsmall cell lung cancer (NSCLC) A549 NucLight Red cells were purchased from Essen Bioscience and cultured in Ham’s F-12 nutrient mixture with GlutaMAX-1 (Gibco) supplemented with 10% FBS and 0.5 μg/mL puromycin. Cells were maintained in a humidified incubator at 37 °C in 5% CO2. These cells have nuclei-fluorescently labeled red. Anti-hMcl-1 and anti-β-tubulin antibodies were purchased from Cell Signaling Technology (#5453) and Santa Cruz Biotechnology (sc-58884), respectively. HRP-conjugated goat antimouse and antirabbit secondary antibodies were purchased from ThermoFisher Scientific.

hMcl-1(172–323) = target: T1, hMcl-1(172–323) (Homo sapiens, UniProt Q07820); assay: DELFIA displacement of biotinylated-BH3 peptide from hMcl-1(172–323); type: binding
T1 construct: made in house; host or cells: E. coli BL21 (DE3) gold pLysS
Protocol: At the end of a 2 h incubation, plates were washed 3 times. Subsequently, a solution of 6His-tagged-hMcl-1(172–323) or 6His-tagged-hBfl-1(1–149) protein and the test peptides were preincubated for 2 h and added to the washed streptavidin-coated plates along with a Eu–N1-labeled anti-6xHis antibody (PerkinElmer, 1:2000) solution and further incubated for 2 h on a microplate shaker. Plates were then washed 3 times, and each well was incubated with 200 μL of the enhancement solution (PerkinElmer) for 10 min. Fluorescent readings (VICTOR X5 microplate reader) were then measured by using the excitation and emission wavelengths of 340 and 615 nm, respectively. Fluorescent counts were normalized to those of DMSO wells and reported as % inhibition, and Prism 10 (GraphPad) was used to calculate the IC50 values. Protein, peptide, and antibody solutions were prepared in a DELFIA assay buffer (PerkinElmer), and all of the incubations were performed at room temperature. Each well received a final DMSO concentration of 1%. The final concentrations of 6His-tagged-hMcl-1(172–323) and 6His-tagged-hBfl-1(1–149) used were 16 and 15 nM, respectively.

[1] = Aqueous solubility (observation); type: physicochemical; conditions: observed during CD measurements
Excerpt: (§1) Furthermore, to verify that the peptides preferentially assumed a stabilized alpha-helical conformation in the stapled version compared to the linear peptide, we performed CD measurements. Typical curves for the linear peptide (138E12, blue) and a stapled peptide (155H1, red) are reported in Figure 3, while CD data for all other peptides are reported as the Supporting Information (Supporting Figures S3–S14). Using these measurements and the software BeStSel (https://bestsel.elte.hu),[34] we could calculate the percentage of alpha-helical content for each peptide (Table 2). Most stapled peptides, perhaps except compound 4 and compound 7, assumed nearly complete alpha-helical conformation in aqueous buffer (Table 2 and Supporting Figures S3–S14).

[2] = Circular dichroism, percentage of alpha-helix (BeStSel); type: physicochemical; conditions: 25 °C
Excerpt: as §1
Circular dichroism spectra were acquired on a Jasco 815 spectropolarimeter. Samples were prepared in MQ Water or in 15 mM phosphate buffer, pH 7.5. The experiments were conducted at 25 °C, using a 1 mm-path length quartz cell to record data from 190 to 260 nm in 1 nm increments. The response time was 2 s. The data were then converted to Δε(M^–1·cm^–1), and the percentage of alpha-helix was calculated using BeStSel (https://bestsel.elte.hu) software.[34]

[3] = DELFIA displacement assay, n = 2, 16 nM 6His-hMcl-1(172–323), protein and peptide preincubated 2 h, room temperature, 1% DMSO, read-out: IC50 (nM) hMcl-1(172–323)

T1 sequence (Q07820 172-323): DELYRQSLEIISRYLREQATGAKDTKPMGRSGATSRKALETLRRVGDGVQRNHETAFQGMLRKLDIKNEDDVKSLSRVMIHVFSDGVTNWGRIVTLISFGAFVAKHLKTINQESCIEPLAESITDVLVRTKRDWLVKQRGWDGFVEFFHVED

Compound: CC[C@H](C)[C@H](NC(=O)[C@H](CNC(=O)c1cc(S(=O)(=O)F)ccc1OC)NC(C)=O)C(=O)N[C@@H](C)C(=O)N[C@@H](CCC(=O)O)C(=O)N[C@@H](CCC(N)=O)C(=O)N[C@@H](CC(C)C)C(=O)N[C@@H](CCCNC(=N)N)C(=O)N[C@@]1(C)CCC/C=C\CCC[C@@](C)(C(=O)N[C@@H](Cc2ccccc2)C(N)=O)NC(=O)[C@H](CC(=O)O)NC(=O)CNC(=O)[C@H]([C@@H](C)CC)NC1=O [11 (155H1)] (Ac-[Dap](Benzoyl(2-OMe,5-SO2F))IAEQLR[S5]IGD[S5]F-NH2; staple (Z) 8-12)
- lytic effect on A549 NucLight Red cells (A549 NucLight Red cells): nonlytic

Compound: CC[C@H](C)[C@H](NC(=O)[C@H](CCCNC(=N)N)NC(=O)[C@H](CCCNC(=N)N)NC(=O)[C@H](CC(C)C)NC(=O)[C@H](CCC(N)=O)NC(=O)[C@]1(C)CCC/C=C/CCC[C@](C)(NC(C)=O)C(=O)N[C@@H](CNC(=O)c2cc(S(=O)(=O)F)ccc2OC)C(=O)N[C@@H]([C@@H](C)CC)C(=O)N[C@@H](C)C(=O)N1)C(=O)NCC(=O)N[C@@H](CC(=O)O)C(=O)N[C@@H](CCCNC(=N)N)C(=O)N[C@@H](Cc1ccccc1)C(N)=O [compound 1] (Ac-[S5][Dap](Benzoyl(2-OMe,5-SO2F))IA[S5]QLRRIGDRF-NH2; staple (E) 1-5)
- lytic effect on A549 NucLight Red cells (A549 NucLight Red cells): lytic
- lytic effect on A549 cells (A549 NucLight Red cells): lytic effect was observed

Compound: CC[C@H](C)[C@H](NC(=O)[C@H](CCCNC(=N)N)NC(=O)[C@H](CCCNC(=N)N)NC(=O)[C@H](CC(C)C)NC(=O)[C@H](CCC(N)=O)NC(=O)[C@]1(C)CCC/C=C/CCC[C@](C)(NC(C)=O)C(=O)N[C@@H](CNC(=O)c2cc(S(=O)(=O)F)ccc2OC)C(=O)N[C@@H]([C@@H](C)CC)C(=O)N[C@@H](C)C(=O)N1)C(=O)NCC(=O)N[C@@H](Cc1nn[nH]n1)C(=O)N[C@@H](CCCNC(=N)N)C(=O)N[C@@H](Cc1ccccc1)C(N)=O [compound 2] (Ac-[S5][Dap](Benzoyl(2-OMe,5-SO2F))IA[S5]QLRRIG[Ala(1H-tetrazol-5-yl)]RF-NH2; staple (E) 1-5)
- IC50 (hMcl-1(172–323)): 633 ± 30 nM
- lytic effect on A549 cells (A549 NucLight Red cells): lytic effect was observed

Compound: CC[C@H](C)[C@H](NC(=O)[C@H](C)NC(=O)[C@H](CCCNC(=N)N)NC(=O)[C@H](CC(C)C)NC(=O)[C@H](CCC(N)=O)NC(=O)[C@]1(C)CCC/C=C/CCC[C@](C)(NC(C)=O)C(=O)N[C@@H](CNC(=O)c2cc(S(=O)(=O)F)ccc2OC)C(=O)N[C@@H]([C@@H](C)CC)C(=O)N[C@@H](C)C(=O)N1)C(=O)NCC(=O)N[C@@H](CC(=O)O)C(=O)N[C@@H](C)C(=O)N[C@@H](Cc1ccccc1)C(N)=O [compound 4] (Ac-[S5][Dap](Benzoyl(2-OMe,5-SO2F))IA[S5]QLRAIGDAF-NH2; staple (E) 1-5)
- aqueous solubility [1]: limited aqueous solubility

Compound: CC[C@H](C)[C@H](NC(=O)[C@H](CNC(=O)c1cc(S(=O)(=O)F)ccc1OC)NC(C)=O)C(=O)N[C@@H](C)C(=O)N[C@@]1(C)CCC/C=C\CCC[C@@](C)(C(=O)N[C@H](C(=O)NCC(=O)N[C@@H](CC(=O)O)C(=O)N[C@@H](C)C(=O)N[C@@H](Cc2ccccc2)C(N)=O)[C@@H](C)CC)NC(=O)[C@H](CCCNC(=N)N)NC(=O)[C@H](CC(C)C)NC(=O)[C@H](CCC(N)=O)NC1=O [compound 7] (Ac-[Dap](Benzoyl(2-OMe,5-SO2F))IA[S5]QLR[S5]IGDAF-NH2; staple (Z) 4-8)
- aqueous solubility [1]: limited aqueous solubility

Compound: Ac-Dap(2MeO,5FSB)IAEQLRRIGDRF-CONH2 (Ac-[Dap](2‑methoxy‑5‑fluorosulfonylbenzoyl)IAEQLRRIGDRF-NH2) [138E12, previously reported linear Lys 234-covalent BH3 peptide with aryl-sulfonyl fluoride, reference compound]
- IC50 (hMcl-1(172–323); [3]): 18 ± 4 nM

Compound: Ac-Dap(2MeO,5FSB)IAEQLRRIGDRF-CONH2 [138E12, previously reported linear Lys 234-covalent BH3 peptide with aryl-sulfonyl fluoride, reference compound]
- % alpha-helix ([2]; CD spectra measured both in water and in 15 mM phosphate buffer pH 7.5, BeStSel): 48.3 ^b %

Compound: Ac-Dap(2MeO,5FSB)IXEQLXRIGDRF-CONH2 (sidechain bridge or staple) ({Ac-Dap(2MeO,5FSB)}-I[S5]EQL[S5]RIGDRF-NH2; staple 2-6) [compound 10, stapled covalent BH3 peptide, staple at positions 4 and 8]
- IC50 (hMcl-1(172–323); [3]): 174 ± 1 nM
- % alpha-helix ([2]; CD, 190–260 nm, MQ water or 15 mM phosphate buffer pH 7.5, calculated using BeStSel): 100%
